Data published in article PMC6411751, “Use of machine learning to identify novel, behaviorally active antagonists of the insect odorant receptor co-receptor (Orco) subunit” (Scientific Reports, 2019).

These molecules were tested against T1, Agam\Orco (Anopheles gambiae, UniProt Q7QCC7) (assay: cell-based). Conditions: not given.
T1 construct: expressed in transfected cells; host or cells: Xenopus laevis oocytes injected with capped cRNA (plasmid pT7TS, gift of L. Zwiebel)
T1 sequence (Q7QCC7 1-478): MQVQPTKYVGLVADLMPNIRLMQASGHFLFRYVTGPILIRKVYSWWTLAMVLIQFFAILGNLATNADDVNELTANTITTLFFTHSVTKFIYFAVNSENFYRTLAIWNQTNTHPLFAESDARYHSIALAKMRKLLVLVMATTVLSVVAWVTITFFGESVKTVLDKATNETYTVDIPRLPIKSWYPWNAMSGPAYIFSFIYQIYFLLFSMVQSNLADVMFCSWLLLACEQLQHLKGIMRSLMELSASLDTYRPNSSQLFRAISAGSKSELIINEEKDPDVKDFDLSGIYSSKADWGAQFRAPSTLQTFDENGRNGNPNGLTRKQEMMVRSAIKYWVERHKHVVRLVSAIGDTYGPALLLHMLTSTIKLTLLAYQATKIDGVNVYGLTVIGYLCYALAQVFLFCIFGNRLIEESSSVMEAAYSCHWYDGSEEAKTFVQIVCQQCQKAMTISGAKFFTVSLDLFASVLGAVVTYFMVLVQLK
Type: cell-based
Protocol: A 2 hr incubation with collagenase B (Roche) was used to remove follicle cells from oocytes. Capped cRNA for Agam\Orco was synthesized using mMessage mMachine kits (Thermo Fisher Scientific). 25 ng of cRNA was injected into stage V–VI oocytes, followed by a 2–5 day incubation at 18 °C in Barth’s saline (in mM: 88 NaCl, 1 KCl, 2.4 NaHCO3, 0.3 CaNO3, 0.41 CaCl2, 0.82 MgSO4, 15 HEPES, pH 7.4, and 0.05 g/L tetracycline, 0.05 g/L ciprofloxacin, 0.1 g/L amikacin) prior to electrophysiological recordings.
An automated parallel electrophysiology system (OpusExpress 6000 A, Molecular Devices) was used to record Orco agonist (OLC12) or odorant induced currents under two-electrode voltage clamp. Oocytes were perfused with ND96 (in mM: 96 NaCl, 2 KCl, 1 CaCl2, 1 MgCl2, 5 HEPES, pH 7.4). DMSO was used to prepare 1 M or 100 mM stock solutions of test compounds, which were then diluted in ND96 on the day of the experiment. Compounds were applied at a flow rate of 1.0 mL/min, with extensive washing in ND96 at 4.6 mL/min between applications. Micropipettes with resistances of 0.2–2.0 MΩ were filled with 3 M KCl. The holding potential was −70 mV. Current responses were filtered (4-pole, Bessel, low pass) at 20 Hz (−3 db) and sampled at 100 Hz. OpusXpress 1.1 software (Molecular Devices) was used to capture and store current responses.
To measure antagonist activity at Orco, Agam\Orco was activated by the Orco agonist OLC12[34]. […] The current response to OLC12 in the presence of antagonist candidate was compared to the mean of the preceding two responses to OLC12 alone and presented as a percentage[34],[35]. This value was then normalized to the value obtained when the assay was run in the absence of antagonist candidate (sham).
During development of the training panel (Fig. 2, Tables S1 and S2), all compounds not previously known to be Orco antagonists were tested at a concentration of 3 mM. […] Concentration-inhibition curves were constructed for all compounds eliciting >20 percent inhibition at 3 mM. The same concentration and criteria were used during screening of predicted actives (Fig. 4D) and predicted inactives (Fig. 5C).
Clampfit 9.1 software (Molecular Devices) was used to perform initial analysis of electrophysiological data. Prism 7 (Graphpad) was used for curve fitting. Concentration-inhibition data were fit to the equation: I = Imax/(1 + (X/IC50)^n) where I represents the current response at a given concentration of inhibitor, X; Imax is the maximal response in the absence of inhibitor; IC50 is the concentration of inhibitor present that allows a half maximal response from OLC12; n is the apparent Hill coefficient.
`CC(C)(C)c1ccc(O)c(C(C)(C)C)c1` [2,4-di-tert-butylphenol] was tested, and the IC50 was 15 ± 1 µM and the “more potent than BMP” value was 3 fold. For `Cc1ccc(O)c(C(C)(C)C)c1` [2-tert-butyl-4-methylphenol], the “more potent than BMP” value was 2 fold. `CCc1cccc(CC)c1O` [2,6-diethylphenol] was tested, and the IC50 was 86 ± 17 µM. `CC(C)c1ccc(CO)cc1` [4-isopropylbenzyl alcohol] gave an IC50 of 605 ± 116 µM. In the case of `CCCCO` [1-butanol], the “inhibition of Agam\Orco (OLC12 response) at 3 mM” value (shortened to “inhibition of Agam\Orco”) is reported as ≤ 20%. `CC(C)(C)c1ccccc1O` [2-tert-butylphenol] gave an IC50 of 32 ± 5 µM. For `CC(C)c1cccc(C(C)(C)C)c1O` [2-tert-butyl-6-isopropylphenol], the IC50 was 50 ± 7 µM. In the case of `c1ccc(CNc2ccccc2)cc1` [n-benzylaniline], the IC50 is reported as 114 ± 12 µM. With `CC(C)c1cccc(C(C)C)c1O` [propofol, 2,6-diisopropylphenol, reference compound] the IC50 was 47 ± 3 µM and the Orco antagonist activity was “has Orco antagonist activity”.

Same assay, conditions: 1 mM compound, 30 µM OLC12
With `CCN(CC)C(=O)c1cccc(C)c1` [DEET, N,N-diethyl-m-toluamide, reference compound] the “inhibition of OLC12 activation” value was “little or no inhibition”.

Same assay, conditions: 3 mM compound, 30 µM OLC12
For `CN(C)C` [trimethylamine], the “inhibition of Agam\Orco” value was ≤ 20%. In the case of `c1cscn1` [thiazole], the “inhibition of Agam\Orco” value is reported as ≤ 20%.

Same assay, conditions: Agam\Orco IC50 compared with 3I6MC
For `Cc1ccc(C(C)C)c(O)c1` [thymol], the “change in potency relative to 3I6MC” value was “slightly decreased potency”.

Same assay, conditions: Agam\Orco IC50 compared with BMP
In the case of `CCc1cccc(CC)c1O` [2,6-diethylphenol], the “change in potency relative to BMP” value is reported as “slightly decreased potency”. `CC(C)(C)c1cccc(C(C)(C)C)c1O` [2,6-di-tert-butylphenol] was tested, and the “change in potency relative to BMP” value was “slightly decreased potency”. For `Cc1cc(C)c(O)c(C)c1` [2,4,6-trimethylphenol], the “loss of potency relative to BMP” value was 4.5 fold. In the case of `CC(C)(C)c1ccccc1O` [2-tert-butylphenol], the “change in potency relative to BMP” value is reported as “slight increase in potency”. `CC(C)c1cccc(C(C)(C)C)c1O` [2-tert-butyl-6-isopropylphenol] was tested, and the “change in potency relative to BMP” value was “no effect on potency”.

Same assay, conditions: Table 2; inhibition of Agam\Orco activated by 30 µM OLC12; mean ± SEM (n = 3–9); read-out: IC50
Molecule `Cc1ccc(O)c(C(C)(C)C)c1` [2-tert-butyl-4-methylphenol] has an IC50 of 25 ± 3 µM. In the case of `CC(C)c1ccc(O)c(C(C)C)c1` [C00014, 2,4-diisopropylphenol], the IC50 is reported as 37 ± 7 µM. In the case of `CC(C)(C)c1cccc(C(C)(C)C)c1O` [2,6-di-tert-butylphenol], the IC50 is reported as 92 ± 9 µM. In the case of `Cc1cc(C)c(O)c(C)c1` [2,4,6-trimethylphenol], the IC50 is reported as 212 ± 29 µM.

Same assay, conditions: Table S1; training actives; Agam\Orco activated by 30 µM OLC12; mean ± SEM (n = 3-8); read-out: IC50
For `COc1nccnc1CC(C)C` [2-isobutyl-3-methoxypyrazine], the IC50 was 1020 ± 83 µM. In the case of `O=C(/C=C/c1ccccc1)OCc1ccccc1` [benzyl cinnamate], the IC50 is reported as 492 ± 64 µM. `CC12CCC(CC1)C(C)(C)O2` [eucalyptol] showed an IC50 of 2960 ± 255 µM. With `C=CCc1ccc(OC)c(OC)c1` [methyl eugenol] the IC50 was 525 ± 40 µM. Work on `CCOC(=O)C=Cc1c(Cl)cccc1Cl` [ethyl 2,6-dichlorocinamate] yielded an IC50 of 93 ± 11 µM. For `SCCCCCCCCCS` [1,9-nonanedithiol], the IC50 was 1600 ± 299 µM. For `CC(C=O)=Cc1ccccc1` [α-methyl cinnamaldehyde], the IC50 was 187 ± 40 µM. With `CC1(O)CSC(C)(O)CS1` (centres unmarked) [2,5-dimethyl-2,5-dihydroxy-1,4-dithiane] the IC50 was 4860 ± 1270 µM. `C=C(C)C1CC=C(C)[C@@H](O)C1` (single isomer, unassigned; (-)) [(-)-carveol] was tested, and the IC50 was 1030 ± 117 µM. `CC1(C)C(=O)[C@@]2(C)CC[C@H]1C2` [L-fenchone] was tested, and the IC50 was 1330 ± 105 µM. `Cc1ccccc1` [toluene] was tested, and the IC50 was 1600 ± 243 µM. Work on `CCOC(=O)c1ccccc1` [ethyl benzoate] yielded an IC50 of 569 ± 44 µM. `CCCCC1Cc2ccccc2C1=O` (centres unmarked) [2-butyl-1-indanone] showed an IC50 of 289 ± 28 µM. `C=C(C)[C@@H]1CC[C@@H](C)C(=O)C1` [(+)-dihydrocarvone] gave an IC50 of 1240 ± 219 µM. With `CC1=NC(C)SC1C` (centres unmarked) [2,5-dihydro-2,4,5-trimethylthiazoline] the IC50 was 13000 ± 2400 µM. `Cc1cccc(O)c1` [m-cresol] showed an IC50 of 1280 ± 238 µM. With `COc1ccccc1OC` [veratrole] the IC50 was 5420 ± 845 µM. With `O=Cc1ccc2c(c1)OCO2` [piperonal] the IC50 was 2570 ± 244 µM. Work on `C=C(C)[C@H]1CC=C(C)C(=O)C1` [(S)-carvone] yielded an IC50 of 1280 ± 92 µM. Molecule `CCCCc1ccc(NC(=O)CSc2nnc(-c3ccccn3)n2CC)cc1` [OLC15, N-(4-butylphenyl)-2-((4-Et-5-(2-pyridinyl)-4H-1,2,4-triazol-3-yl)thio)acetamide, reference compound] has an IC50 of 10 ± 2 µM. In the case of `COc1ccc(OC)cc1` [1,4-dimethoxybenzene], the IC50 is reported as 1100 ± 172 µM. With `Brc1ccccc1` [bromobenzene] the IC50 was 1160 ± 143 µM. With `COc1ccccc1O` [guaiacol] the IC50 was 4030 ± 654 µM. `NCCc1c[nH]c2ccccc12` [tryptamine] was tested, and the IC50 was 48 ± 10 µM. For (−)-terpinen-4-ol, the IC50 was 678 ± 78 µM. `CC(C)=CCC[C@@H](C)CC=O` [(R)-(+)-citronellal] gave an IC50 of 651 ± 58 µM. For `O=Cc1ccc(O)cc1` [4-hydroxybenzaldehyde], the IC50 was 3620 ± 449 µM. `COc1ccccc1` [anisole] gave an IC50 of 1170 ± 243 µM. `CCCC=O` [butyraldehyde] gave an IC50 of 3000 ± 333 µM. `CC(C)CCOC(=O)Cc1ccccc1` [isoamyl phenylacetate] gave an IC50 of 692 ± 66 µM. For `CC(C)OC(=O)C=Cc1ccccc1` [isopropyl cinnamate], the IC50 was 153 ± 14 µM. `CC1CC[C@H](C(C)C)[C@@H](O)C1` (single isomer, unassigned; (+)) [(+)menthol] gave an IC50 of 443 ± 72 µM. In the case of `CC1CCC(C(C)C)C(O)C1` (single isomer, unassigned; (-)) [(-)menthol], the IC50 is reported as 433 ± 78 µM. With `O=CCCc1ccccc1` [hydrocinnamaldehyde] the IC50 was 220 ± 24 µM. `Cc1cc(C)c(NC(=O)c2cccs2)c(C)c1` [OX1L, N-mesityl-2-thiophenecarboxamide, reference compound] showed an IC50 of 58 ± 10 µM. Molecule `O=C1CCCCCCCCCC1` [cycloundecanone] has an IC50 of 366 ± 28 µM. In the case of `CCCCCCC1CCC(=O)O1` (centres unmarked) [γ-decalactone], the IC50 is reported as 948 ± 153 µM. `Cc1ccc(C(C)C)c(O)c1` [thymol] was tested, and the IC50 was 61 ± 10 µM. With `COC(C)=O` [methyl acetate] the IC50 was 1640 ± 179 µM. `c1ccsc1` [thiophene] was tested, and the IC50 was 2670 ± 147 µM. `CCCCCSC` [amyl methyl sulfide] showed an IC50 of 915 ± 77 µM. With `C=C(C)C1CCC(C)C(O)C1` (single isomer, unassigned; (-)) [(-)-dihydrocarveol] the IC50 was 818 ± 81 µM. Molecule `CCN(CC)C(=O)c1cccc(C)c1` [DEET, N,N-diethyl-m-toluamide, reference compound] has an IC50 of 4480 ± 369 µM. Molecule `Cc1ccc(CNC(=O)c2cccs2)cc1` [OX3a, N-(4-methylbenzyl)-2-thiophenecarboxamide, reference compound] has an IC50 of 202 ± 15 µM. Work on `C#CC(O)CCCCC` (centres unmarked) [1-octyn-3-ol] yielded an IC50 of 870 ± 60 µM. Work on (+)-isopulegol yielded an IC50 of 1370 ± 285 µM. Work on `CCCCCCOC(C)=O` [hexyl acetate] yielded an IC50 of 841 ± 121 µM.

Same assay, conditions: read-out: inhibition of Agam\Orco (OLC12 response) at 3 mM; 3 mM compound, 30 µM OLC12
With `O=C(O)CCCCBr` [5-bromovaleric acid] the inhibition at 3000 µM was ≤ 20%. In the case of `CC1=CCC2CC1C2(C)C` (stereo not drawn) [α-pinene], the inhibition at 3000 µM is reported as ≤ 20%. For `CCC(=O)C(C)=O` [2,3-pentanedione], the inhibition at 3000 µM was ≤ 20%. `O=C1CCCC1` [cyclopentanone] was tested, and the inhibition at 3000 µM was ≤ 20%. In the case of `Cc1ccnc2ccccc12` [4-methylquinoline], the inhibition at 3000 µM is reported as ≤ 20%. For `OC[C@H]1OC(O)[C@H](O)[C@@H](O)[C@@H]1O` (some centres unmarked) [glucose], the inhibition at 3000 µM was ≤ 20%. For `c1cnccn1` [pyrazine], the inhibition at 3000 µM was ≤ 20%. `N[C@@H](Cc1c[nH]c2ccccc12)C(=O)O` [tryptophan] was tested, and the inhibition at 3000 µM was ≤ 20%. With `CCOC(=O)CC` [ethyl propionate] the inhibition at 3000 µM was ≤ 20%. `CC1=CC(=O)CC(C)(C)C1` [isophorone] was tested, and the inhibition at 3000 µM was ≤ 20%. In the case of `CCCCC/C=C\C/C=C\CCCCCCCC(=O)O` [linoleic acid], the inhibition at 3000 µM is reported as ≤ 20%. `Oc1ccccc1O` [catechol] was tested, and the inhibition at 3000 µM was ≤ 20%. For `O=C(O)CCCCCBr` [6-bromohexanoic acid], the inhibition at 3000 µM was ≤ 20%. With `N[C@@H](Cc1c[nH]cn1)C(=O)O` [histidine] the inhibition at 3000 µM was ≤ 20%. In the case of `N[C@@H](Cc1ccccc1)C(=O)O` [phenylalanine], the inhibition at 3000 µM is reported as ≤ 20%.
